Assay results reported in US12691178B2, “Polysorbate mixtures having modified fatty acid ester distribution” (Genentech, Inc., priority 2020, dated 2026).
Values after ≈ are worked out from the molar mass of the structure shown.

Experiment: FFA solubility at different formulation pH at constant PS20 concentration, fit to modified Henderson-Hasselbalch equation
Type: physicochemical
Details: constant of the 'pH term' of the FFA solubility model (Equation 1); for solubility: formulation containing PS20, aqueous with cosolvent or surfactant or cyclodextrin, read-out: Solubility of the non-ionized FFA (β1); for pKa: formulation containing polysorbate 20 (PS20), read-out: Experimentally determined pKa (β2)
Method: To create the model, first, FFA solubility was measured at different formulation pH's at a constant PS20 concentration. […] Second, FFA solubility was measured at different PS20 concentrations at a constant pH.

Row | SMILES | solubility [µg/mL] | pKa
1 | CCCCCCCCCCCC(=O)O [Lauric (C12) Acid, lauric acid] | 9.97 (≈ 49.8 µM) | 5.71
2 | CCCCCCCCCCCCCC(=O)O [Myristic (C14) Acid, myristic acid] | 3.87 (≈ 16.9 µM) | 6.67
